These results are taken from patent publication US20020052323A1, “Quinoline-(C=O)-(multiple amino acids)-leaving group compounds for pharmaceutical compositions and reagents” (priority 2000, published 2002).

Values joined by “and” are separate entries in the source; they are usually repeats but may differ in a detail not shown here. Identical values can stand only once. Like-named read-outs stand apart in the source and are kept apart here.

In data set [1] the test system is WEHI 231 cells. The data set can be described thus: TUNEL analysis of Actinomycin D induced apoptosis, flow cytometry. The data set is classed as cell-based, murine. Also on record: key to rank of result in TUNEL analysis: ***: Best result; **: Second best result; *: Third best result. As for the experimental part: Flow Cytometry measures the percent of the cell population undergoing apoptosis. The effect of the inhibitors is identified as a reduction in the percent of the cell population undergoing apoptosis. Cell Type: WEHI 231 cells, murine immature B cells (suspension) Plate cells at 2×10^5/ml in 10 ml of media (Total 2×10^6 cells) Preincubate caspase inhibitors (Formula I) one hour before inducing apoptosis. […] Actinomycin D (ActD) stock is 1 μg/μl add 10 μl/10 ml)-Treat 4 h Process for Tunel Analysis. (See Table 2 below). […] Cell Processing for Tunel Analysis and Flow Cytometry. Centrifuge cells at 300× g for 5 min and aspirate supernatant. Resuspend cells in 5.0 ml of cold 1× PBS, Spin at 300× g, 5 min. Aspirate supernatant. […] Incubate for 15 min. on ice. […] Aspirate supernatant. […] Aspirate supernatant. […] Aspirate supernatant. Resuspend the cell in 300 μl of cold IX PBS, Transfer to a 1.5 ml tube. […] Store at −20° C. at least 18 hr prior to Tunel Labeling Fixed cells are stable for at least 30 days. Process fixed cells for Tunel using the Apo-BRDU kit from Pharmingen (San Diego, Calif.) following the manufacturer's instructions and analyze by flow cytometry.
In general terms: In flow cytometry, cells or beads pass a laser one at a time.

Data set [2] concerns WEHI 231 cells. The experiment in a line: TUNEL analysis, inhibitor alone (toxicity control). The conditions noted are these: no ActD. Type of data set: cell-based, murine. As to the method: Flow Cytometry measures the percent of the cell population undergoing apoptosis. The effect of the inhibitors is identified as a reduction in the percent of the cell population undergoing apoptosis. Cell Type: WEHI 231 cells, murine immature B cells (suspension) Plate cells at 2×10^5/ml in 10 ml of media (Total 2×10^6 cells) Preincubate caspase inhibitors (Formula I) one hour before inducing apoptosis. […] [table] Process fixed cells for Tunel using the Apo-BRDU kit from Pharmingen (San Diego, Calif.) following the manufacturer's instructions and analyze by flow cytometry.

In another data set the target is T1, caspase 1 (Homo sapiens, UniProt P29466).
T1 sequence (P29466 120-297 limits assumed): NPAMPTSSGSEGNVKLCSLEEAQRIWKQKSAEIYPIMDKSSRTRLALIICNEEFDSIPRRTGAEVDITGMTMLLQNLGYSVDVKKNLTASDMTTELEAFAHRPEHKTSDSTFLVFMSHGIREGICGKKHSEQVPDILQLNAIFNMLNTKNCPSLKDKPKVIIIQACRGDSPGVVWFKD
T1 sequence (P29466 317-404 limits assumed): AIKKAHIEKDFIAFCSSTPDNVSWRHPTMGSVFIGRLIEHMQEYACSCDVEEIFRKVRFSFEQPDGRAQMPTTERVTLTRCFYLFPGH
The experiment in a line: Caspase inhibition assay, AcYVAD-AFC substrate. Type of data set: biochemical. As to the method:
(§1) The determination of the IC50/μm was performed according to Gary Johnson, 9401 James Avenue, Suite No. 155, Bloomington, Minn. 55431.
(§2) Caspase Inhibition Assay:—Caspases are diluted in caspase buffer, 0.1 M HEPES, 10% sucrose 0.1% CHAPS and 10 mM DTT, pH 7.5. Caspases 1, 3, and 8 are used at a concentration of 144 U/well and caspase 9 is used at 4.8 U/well in a 96 well fluorometric plate.
(§3) Inhibitors are initially dissolved in DMSO at 10 mg/ml and further dilutions can be prepared in caspase buffer. The inhibitors are generally tested at concentrations ranging from 50 uM to 0.005 uM. These are usually prepared as 2 fold or 2.5 fold decreasing dilutions. The enzyme approximately 144 U in 120 ul caspase buffer is added to 380 ul caspase buffer containing the appropriate concentration on the inhibitor and incubated on ice for 15 min. The reactants 200 ul are then added to a black fluorimetric plate and incubated in the fluorometer at 37° C. for 30 min.
(§4) During the incubation period appropriate coumarin substrates are prepared by dilution in DMSO and caspase buffer to provide a 0.417 mM working stock. AcYVAD-AFC is used for caspase 1, AcDEVD-AFC for caspase 3. AcIETD-AFC for caspase 8 and Ac-LEHD-AFC for capsase 9. Twenty five microliters of the stock solution are added to 200 ul of the caspase and inhibitor test solutions to give a final substrate concentration of 0.046 mM.
(§5) The fluorometer is set to 400 nm excitation and 505 nm emission. The enzyme-inhibitor-substrate is allowed to incubate at for an additional twenty min. and the response is read as fluorescence units vs inhibitor concentration. The responses are plotted as percent of the maximum response (response in the absence of inhibitor) for each concentration of the inhibitor. The inhibitory activity for each inhibitor is described as the concentration of inhibitor that produces a 50% inhibition of the maximum response (IC50).

A further data set addresses T2, caspase 3 (Homo sapiens, UniProt P42574).
T2 sequence (P42574 29-175 limits assumed): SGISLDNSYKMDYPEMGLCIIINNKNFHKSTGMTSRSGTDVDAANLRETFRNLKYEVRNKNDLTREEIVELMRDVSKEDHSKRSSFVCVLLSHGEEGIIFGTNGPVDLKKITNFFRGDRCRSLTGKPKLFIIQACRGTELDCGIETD
T2 sequence (P42574 176-277 limits assumed): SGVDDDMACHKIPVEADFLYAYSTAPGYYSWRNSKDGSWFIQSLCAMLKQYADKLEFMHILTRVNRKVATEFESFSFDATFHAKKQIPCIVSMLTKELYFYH
The experiment in a line: Caspase inhibition assay, AcDEVD-AFC substrate. Type of data set: biochemical. As to the method:
as §1, §2, §3, §4, §5

Another data set concerns the target caspase 8 (Homo sapiens, UniProt Q14790). The experiment in a line: Caspase inhibition assay, AcIETD-AFC substrate. The data set is classed as biochemical. As to the method:
as §1, §2, §3
During the incubation period appropriate coumarin substrates are prepared by dilution in DMSO and caspase buffer to provide a 0.417 mM working stock. AcYVAD-AFC is used for caspase 1, AcDEVD-AFC for caspase 3. […]
The fluorometer is set to 400 nm excitation and 505 nm emission. The enzyme-inhibitor-substrate is allowed to incubate at for an additional twenty min. and the response is read as fluorescence units vs inhibitor concentration. […]

Another data set addresses T3, caspase 9 (Homo sapiens, UniProt P55211).
T3 sequence (P55211 1-315 limits assumed): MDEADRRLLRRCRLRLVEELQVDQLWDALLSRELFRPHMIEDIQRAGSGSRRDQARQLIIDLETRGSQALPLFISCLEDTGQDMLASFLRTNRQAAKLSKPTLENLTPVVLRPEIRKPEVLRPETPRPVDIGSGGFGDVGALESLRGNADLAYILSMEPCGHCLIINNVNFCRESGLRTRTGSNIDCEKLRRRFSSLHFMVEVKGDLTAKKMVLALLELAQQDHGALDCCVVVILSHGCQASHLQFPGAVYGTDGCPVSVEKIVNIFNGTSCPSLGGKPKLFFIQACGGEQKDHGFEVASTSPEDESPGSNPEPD
T3 sequence (P55211 331-416 limits assumed): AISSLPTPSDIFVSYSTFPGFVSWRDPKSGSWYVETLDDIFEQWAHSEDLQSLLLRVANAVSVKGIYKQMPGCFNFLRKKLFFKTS
The data set can be described thus: Caspase inhibition assay, Ac-LEHD-AFC substrate. The data set is classed as biochemical. As to the method: as §1, §2, §3, §4, §5

Setting [3] is: from figure, antilog of log concentration, read-out: IC50 caspase 1.
Where [4] appears, read: from figure, antilog of log concentration, read-out: IC50 caspase 3.
The mark [5] stands for this setting: esterase treated inhibitor, read-out: IC50 caspase 1.

Sequence of caspase 8 (Q14790 217-374 limits assumed, species assumed): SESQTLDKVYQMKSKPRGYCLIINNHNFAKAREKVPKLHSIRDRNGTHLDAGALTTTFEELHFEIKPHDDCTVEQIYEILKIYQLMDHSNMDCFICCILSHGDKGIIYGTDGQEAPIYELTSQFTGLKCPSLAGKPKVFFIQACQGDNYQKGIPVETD
Sequence of caspase 8 (Q14790 385-479 limits assumed, species assumed): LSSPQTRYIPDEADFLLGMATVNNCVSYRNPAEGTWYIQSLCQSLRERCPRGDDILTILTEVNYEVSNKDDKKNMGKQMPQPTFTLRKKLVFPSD

For `COC(=O)CC(NC(=O)C(CC(C)C)NC(=O)c1ccc2ccccc2n1)C(=O)COc1ccccc1` (stereo not shown) [Inhibitor J^1, Q-Leu-Asp(OMe)—CH2—OPh], the “% non-viable cells” value in the data set with WEHI 231 cells [1] (1 μM inhibitor + ActD, WEHI 231, lower = greater inhibitory activity) is given as 88%; in the data set on WEHI 231 cells [1] (10 μM inhibitor + ActD, WEHI 231), 16%; with WEHI 231 cells [1] (20 μM inhibitor + ActD, WEHI 231) it was 3%; in the data set with WEHI 231 cells [1] (30 μM inhibitor + ActD, WEHI 231) it was 2%; in the data set with WEHI 231 cells [1] (40 μM inhibitor + ActD, WEHI 231), 2%; in the data set with WEHI 231 cells [1] (50 μM inhibitor + ActD, WEHI 231), 2%. Moreover, in the data set on WEHI 231 cells [1] (100 μM inhibitor + ActD, WEHI 231), the “% non-viable cells” value was 3%. For the same compound, in the data set on WEHI 231 cells [1] (10 sequences in a blind test), the “efficacy in TUNEL test, in words” value is “most efficacious”. Besides, the “rank of result in TUNEL analysis” value in the data set with WEHI 231 cells [1] (Table 3 markers) is on record as “J^1**”; in the data set on WEHI 231 cells [1] (markers in structure designation table), “Q-Leu-Asp(OMe)—CH2—OPh**”. Moreover, the “effective concentration in TUNEL test” value in the data set with WEHI 231 cells [1] (blind test by TUNEL method, conclusions) stood at 10 µM. In addition, the “% non-viable cells, inhibitor alone” value in the data set with WEHI 231 cells [2] (20 μM Inh alone) and in the data set with WEHI 231 cells [2] (100 μM Inh alone) was 1% throughout. Further, the IC50 on caspase 1 (setting [3]) is around 940 nM.
As to `COC(=O)C[C@H](NC(=O)[C@H](C)NC(=O)[C@@H](NC(=O)c1ccc2ccccc2n1)C(C)C)C(=O)CF` [QVAD(OMe)FMK, Quinoline-(C═O)Val-Ala-Asp(OMe)-Fluoromethyl Ketone], the “concentration vs. >90% cell survival” value turned out to be 100 µM.
Take `COC(=O)CC(NC(=O)C(NC(=O)c1ccc2ccccc2n1)C(C)C)C(=O)COc1ccc(CCNC(=O)OC(C)(C)C)cc1O` (stereo not shown) [Q-VD(OMe)-DOPA-BOC]: the half-inhibitory concentration (IC50) at caspase 3 (Table 5, read-out: CASP-3 IC50) was below 25000 nM.
Regarding “Quinoline-(2-Carbonyl)-Val-Asp(OMe)-α-(3-oxy-Dopamine) [Q-VD(OMe)-DOPA.TFA]”, at caspase 3 (Table 5, read-out: CASP-3 IC50), the 50% inhibitory concentration (IC50) amounted to 2000 nM.
As for `COC(=O)CC(NC(=O)C(NC(=O)c1ccc2ccccc2n1)C(C)C)C(=O)COc1cc(N)ccc1C(=O)O` (stereo not drawn) [Q-VD(OMe)-ASA, Quinoline-(2-Carbonyl)-Val-Asp(OMe)-α-(2-oxy-Amino Salicylic Acid)], the half-inhibitory concentration (IC50) on caspase 1 (Table 5, read-out: CASP-1 IC50) was 1500 nM; at caspase 1 (setting [3]), around 1460 nM; at caspase 3 (Table 5, read-out: CASP-3 IC50), 1240 nM; at caspase 3 (setting [4]), ~1230 nM and ~980 nM; on caspase 8 (Table 5, read-out: CASP-8 IC50), 5880 nM; at caspase 8 (from figure, read-out: IC50 caspase 8), around 5820 nM. The same compound yielded an IC50 against caspase 9 (from figure, antilog of log concentration) of around 5440 nM.
Consider `COC(=O)C[C@H](NC(=O)[C@@H](NC(=O)c1ccc2ccccc2n1)C(C)C)C(=O)COC1=C(c2ccccc2)C(=O)OC1` [Q-VD(OMe)-Tetronic Acid, Quinoline-(2-Carbonyl)-Val-Asp(OMe)—CH2-2-Phenyltetronic Acid], for which the half-maximal inhibitory concentration (IC50) on caspase 3 (Table 5, read-out: CASP-3 IC50) came to 250 nM.
On to `CC(C)C[C@H](NC(=O)c1ccc2ccccc2n1)C(=O)N[C@@H](CC(=O)O)C(=O)COc1ccccc1` [quinoline-(2-carbonyl)-L-D-CH2—OPh], for which the results for the IC50 on caspase 1 (setting [3]) and on caspase 3 (setting [4]) were around 548 nM and around 50 nM, respectively.
In the case of `COC(=O)CC(NC(=O)C(NC(=O)c1ccc2ccccc2n1)C(C)C)C(=O)CF` [quinoline-(2-carbonyl)-V-D(OMe)—CH2-FMK, Quinoline-(2-Carbonyl)-V-D-(OMe)-α-CH2F (the Fluoromethyl Ketone)], the IC50 on caspase 1 (setting [5]) was around 68 nM; against caspase 9 (esterase treated inhibitor), 25 nM; against caspase 9 (non-esterase treated inhibitor) it was around 29 nM.
As for `COC(=O)CC(NC(=O)C(NC(=O)c1ccc2ccccc2n1)C(C)C)C(=O)COc1ccccc1C(=O)O` (stereo not shown) [Q-VD(OMe)-SA, Quinoline-(2-Carbonyl)-Val-Asp(OMe)—CH—O-Salicylic Acid], the IC50 is 1430 nM on caspase 1 (Table 5, read-out: CASP-1 IC50); around 1430 nM on caspase 1 (setting [3]); 500 nM at caspase 3 (Table 5, read-out: CASP-3 IC50).
Take `COC(=O)CC(NC(=O)C(CC(C)C)NC(=O)c1ccc2ccccc2n1)C(=O)CF` [quinoline-(2-carbonyl)-L-D(OMe)—CH2-FMK]: the IC50 on caspase 1 (setting [5]) is around 39.8 nM; on caspase 3 (esterase treated inhibitor, read-out: IC50 caspase 3) it was around 31 nM; on caspase 3 (non-esterase treated inhibitor, read-out: IC50 caspase 3) it was 45 nM; against caspase 9 (esterase treated inhibitor), around 70 nM; against caspase 9 (non-esterase treated inhibitor) it was around 65 nM.
Take `CC(C)[C@H](NC(=O)c1ccc2ccccc2n1)C(=O)N[C@@H](CC(=O)O)C(=O)COc1ccccc1` [quinoline-(2-carbonyl)-V-D-CH2—OPh]: at caspase 1 (setting [3]), the concentration for half-maximal inhibition (IC50) was around 50 nM.
Turning to Bzl-melatonin-V-D(OMe)—CH2—O—Ph, the IC50 on caspase 1 (setting [3]) is around 170 nM.

Broadly, the IC50 is the midpoint of a concentration-inhibition curve.
